Consider eleven molecules from US20250228857A1, “BIOSENSOR AND USES THEREOF” (The Johns Hopkins University, priority 2022, published 2025).

Like-named read-outs stand apart in the source and are kept apart here.

Data set [1] addresses CaMKAR (CaMKII Activity Reporter) (human). Description: cell-based or functional assay.
For data set [2] the following is noted: in vivo; cited from earlier work.
For data set [3] the following is noted: cited from earlier work.
Data set [4] relates to CaMKII. As to conditions: cited from earlier work.
The conditions of data set [5]: in vivo; cited from earlier work. This is another data set of the same source.
The next data set has as its system 293T cells. The data set can be described thus: Cell viability in 293T cells (CellTiter-Glo 2.0). The following applies: 12-hour exposure.
Data set [6] addresses T1, CaMKII (Rattus norvegicus, UniProt P15791).
T1 construct: endogenous in cells; host or cells: neonatal rat ventricular myocytes (Sprague-Dawley)
Description: Pacing-induced CaMKII activity in CaMKAR-expressing neonatal rat ventricular myocytes (NRVMs). In kind it is cell-based.

The test system of data set [7] is Purified recombinant CaMKAR.
Data set [8] has as its system CaMKII. As to conditions: HEK293T cells and in vitro by independent commercial laboratory.
The target of the next data set is T2, CaMKII^T287D (Homo sapiens, UniProt Q13557, T287D).
T2 construct: expressed in transfected cells; host or cells: HEK293T
Description: CaMKII inhibition in 293T cells expressing CaMKAR and CaMKII^T287D (high content imaging). In kind it is cell-based. As to conditions: HEK293T cells, IC50 curves.

The target of data set [9] is T3, constitutively active CaMKIIδT287D (Homo sapiens, UniProt Q13557, T287D).
T3 construct: P2A-mCherry (C); expressed in transfected cells; host or cells: K562 (lentiviral, doxycycline-induced)
The data set can be described thus: CaMKAR-based high throughput primary screen in K562^CaMKII-CaMKAR cells. In kind it is cell-based. The following applies: 5 μM per compound, 12 hours.

The target of data set [10] is CaMKII (Homo sapiens, UniProt Q13557). Type of data set: biochemical. As to conditions: 5 μM drug, 100 μM ATP.

As to “Constitutively active CaMKIIδC (T287D mutation) (from UniProt Q13557 1-499)”, the Maximal amplitude change of CaMKAR signal (R/R0), HEK293T cells, ionomycin in [1] was determined as 227%.
`O=C(O)c1ccc2c(c1)nc(Nc1cccc(Cl)c1)c1ccncc12` [silmitasertib]: the “maximum human plasma concentration” value in [2] is 3420 nM. Further, the “Maximum dose used in humans” value in data set [3] (human, in vivo) is given as 1000 mg BID.
`O=c1c(O)c(-c2ccc(O)c(O)c2)oc2ccccc12` [DiOHF, 3′,4′-dihydroxyflavonol]: in the data set with CaMKII [4] (read-out: published IC50), the IC50 was 250 nM.
Consider `CCN1CCN(Cc2ccc(Nc3ncc(F)c(-c4cc(F)c5nc(C)n(C(C)C)c5c4)n3)nc2)CC1` [abemaciclib], for which the CNS penetrance in data set [5] is 11-16.6%. Moreover, the “maximum human plasma concentration” value in data set [2] is reported as 243 nM. The “Maximum dose used in humans” value in [3] (human, in vivo) is 200 mg BID.
As for `CCS(=O)(=O)N1CC(CC#N)(n2cc(-c3ncnc4[nH]ccc34)cn2)C1` [baricitinib], in data set [5], the CNS penetrance is 20% (103). Besides, in data set [2], the “maximum human plasma concentration” value is 58 nM. Besides, the “Maximum dose used in humans” value in data set [3] (FDA-approved) is listed as 4 mg QD (97); in data set [3] (Healthy volunteers), 40 mg (98). The “toxicity compared with AS100397” value with 293T cells was “less toxic”.
For the molecule `O=C(Nc1nc2cccc(-c3ccc(CN4CCS(=O)(=O)CC4)cc3)n2n1)C1CC1` [Filgotinib, filgotinib], the “inhibition of pacing-induced CaMKII activity” value on CaMKII [6] (0.5 μM and 2 μM pre-treatment) was “failed to inhibit”.
Turning to Purified CaMKIIδc, in [7], the “dynamic range of CaMKAR ratio in vitro, plate reader, Ca2+/CaM and ATP” value is “CaMKAR displays a larger dynamic range in vitro (264±2.1%)”; the “spectral changes of purified CaMKAR in vitro” value was “Recombinant CaMKAR is fully functional and exhibits appropriate spectral changes upon incubation with purified CaMKII”.
As to `CN([C@@H](Cc1ccc(OS(=O)(=O)c2cccc3cnccc23)cc1)C(=O)N1CCN(c2ccccc2)CC1)S(=O)(=O)c1cccc2cnccc12` [KN-62, 1-[N,O-bis(5-isoquinolinesulfonyl)-N-methyl-L-tyrosyl]-4-phenylpiperazine], the “inhibition of autonomously hyperactive CaMKII” value with CaMKII [4] is given as “fail to inhibit”.
Regarding `CC1(COc2ccc3c(c2)ncn3-c2ccc3cccc(N4CCC(N)CC4)c3n2)COC1` [crenolanib], the “maximum human plasma concentration” value in data set [2] is listed as 478 nM. Besides, in the data set on CaMKII [8], the “confirmed CaMKII inhibitor after re-test” value is “potent CaMKII inhibitors”. For the same molecule, the “inhibition of pacing-induced CaMKII activity at maximal human plasma concentration” value against CaMKII [6] (3 Hz pacing, ruxolitinib 1.51 μM, crenolanib 478 nM, abemaciclib 243 nM, baricitinib 58 nM, silmitasertib 3.42 μM) is given as “sustained inhibition”. The “Maximum dose used in humans” value in data set [3] (human, in vivo) is given as 100 mg TID. In addition, in the data set with 293T cells, the “toxicity compared with AS100397” value is given as “all drugs except crenolanib were less toxic”. Also, the “potency compared with AS100397” value at CaMKII^T287D is listed as “more potent than AS100397”.
Turning to `CN[C@@H]1C[C@H]2O[C@@](C)([C@@H]1OC)n1c3ccccc3c3c4c(c5c6ccccc6n2c5c31)C(=O)NC4` [staurosporine], in [9], the “CaMKAR signal / hit in primary screen” value is “returned”. Moreover, at CaMKII [10], the “inhibition in secondary screen (CaMKAR in vitro assay)” value is “returned”.
Regarding `COc1ccc(S(=O)(=O)N(CCO)c2ccccc2CN(C)CC=Cc2ccc(Cl)cc2)cc1` [KN-93], the “inhibition of autonomously hyperactive CaMKII” value in the data set with CaMKII [4] is “fail to inhibit”.
